Results: patent publication US20210161968A1, “USE OF MICRONEEDLE PATCH TO PROMOTE HAIR GROWTH” (North Carolina State University, priority 2018, published 2021)

System: 7-week-old shaved C57BL/6J mouse model
Experiment: Hair loss therapy (hair regrowth) in shaved mouse model
Type: in vivo
Procedure: Animal Studies: C57B/6J mice were used in this work and purchased from Jackson Laboratory (Bar Harbor, Me., United States of America). For in vivo therapy studies, the mice were shaved at postnatal day 50, and treated with an HMN patch loaded with exosomes and/or UK5099 at day 1 and day 5 after hair shave. The patch was pressed firmly for the first 5 seconds to penetrate through the epidermis and then pressed softly for an additional 1 minute to make the patch absorb liquid. The patch base was removed at 4 hours post-insertion into the skin. Topical administration of UK5099 (solvent formulation: ethanol/water/propylene glycol=5/3/2), and subcutaneous injection of exosomes were performed every two days, with the dosage same with that of the corresponding HMN patch. Shaved mice without any treatment were adopted as a control. The clinical agent minoxidil was used via topical administration in a concentration of 3%. The time profile of the hair phenotype transformation was obtained by real-time observation of the hair regrowth in mice. The judgement of the hair follicles in telogen, telogen-anagen transition, and anagen was performed according to a method previously described in the literature. See Oh et al., J. Investig. Dermatol. 2016, 136(1), 34-44. […]

N#CC(=Cc1cn(-c2ccccc2)c2ccccc12)C(=O)O [UK5099, 2-cyano-3-(1-phenyl-1H-indol-3-yl)-2-propenoic acid]
time for HFSCs to enter into anagen (pigmentation and hair regrowth) (delivered via HMN patch, two rounds of administration (day 1 and day 5)): about 8 days | therapeutic effect reflected by the hair covered area (topical administration, seven treatments, compared with HMN administration): inferior therapeutic effect
